Numbers after ± are expanded uncertainties.
F/C=C/C(F)(F)F [trans-1,3,3,3-tetrafluoropropene]
Details	mass density [kg/m3]
242.91 K, 56.6 kPa, Gas, isochoric method	3.322 ± 0.11
242.91 K, 56.7 kPa, Gas, isochoric method	3.322 ± 0.11
252.89 K, 59.4 kPa, Gas, isochoric method	3.322 ± 0.11
252.9 K, 59.4 kPa, Gas, isochoric method	3.322 ± 0.11
262.9 K, 62 kPa, Gas, isochoric method	3.311 ± 0.11
262.91 K, 61.9 kPa, Gas, isochoric method	3.311 ± 0.11
262.94 K, 139.4 kPa, Gas, isochoric method	7.692 ± 0.11
262.95 K, 139.4 kPa, Gas, isochoric method	7.692 ± 0.11
272.84 K, 64.4 kPa, Gas, isochoric method	3.311 ± 0.11
272.85 K, 64.4 kPa, Gas, isochoric method	3.311 ± 0.11
272.87 K, 145.5 kPa, Gas, isochoric method	7.634 ± 0.11
282.6 K, 151.4 kPa, Gas, isochoric method	7.634 ± 0.11
282.63 K, 66.9 kPa, Gas, isochoric method	3.311 ± 0.1
282.66 K, 238.8 kPa, Gas, isochoric method	12.5 ± 0.11
283.14 K, 1620 kPa, Liquid, Vibrating tube method	1214.3 ± 1.6
283.14 K, 2638 kPa, Liquid, Vibrating tube method	1218.5 ± 1.6
283.14 K, 3662 kPa, Liquid, Vibrating tube method	1222.4 ± 1.6
283.14 K, 5710 kPa, Liquid, Vibrating tube method	1229.8 ± 1.6
283.14 K, 6721 kPa, Liquid, Vibrating tube method	1233.2 ± 1.6
283.14 K, 7725 kPa, Liquid, Vibrating tube method	1236.6 ± 1.6
283.14 K, 11789 kPa, Liquid, Vibrating tube method	1249.5 ± 1.6
283.14 K, 12805 kPa, Liquid, Vibrating tube method	1252.4 ± 1.6
283.14 K, 15859 kPa, Liquid, Vibrating tube method	1261.2 ± 1.7
283.14 K, 16870 kPa, Liquid, Vibrating tube method	1263.9 ± 1.7
283.14 K, 18876 kPa, Liquid, Vibrating tube method	1269.4 ± 1.7
283.14 K, 20909 kPa, Liquid, Vibrating tube method	1274.5 ± 1.7
283.15 K, 619 kPa, Liquid, Vibrating tube method	1210.5 ± 1.6
283.15 K, 4689 kPa, Liquid, Vibrating tube method	1226.1 ± 1.6
283.15 K, 8745 kPa, Liquid, Vibrating tube method	1240 ± 1.6
283.15 K, 9760 kPa, Liquid, Vibrating tube method	1243.2 ± 1.6
283.15 K, 10765 kPa, Liquid, Vibrating tube method	1246.5 ± 1.6
283.15 K, 13827 kPa, Liquid, Vibrating tube method	1255.7 ± 1.7
283.15 K, 14841 kPa, Liquid, Vibrating tube method	1258.4 ± 1.7
283.15 K, 17875 kPa, Liquid, Vibrating tube method	1266.7 ± 1.7
283.15 K, 19891 kPa, Liquid, Vibrating tube method	1272 ± 1.7
283.15 K, 21921 kPa, Liquid, Vibrating tube method	1277.1 ± 1.7
283.15 K, 22932 kPa, Liquid, Vibrating tube method	1279.6 ± 1.7
283.15 K, 23948 kPa, Liquid, Vibrating tube method	1281.9 ± 1.7
283.15 K, 24959 kPa, Liquid, Vibrating tube method	1284.4 ± 1.7
283.15 K, 25966 kPa, Liquid, Vibrating tube method	1286.7 ± 1.7
283.15 K, 26982 kPa, Liquid, Vibrating tube method	1289.1 ± 1.7
283.15 K, 27984 kPa, Liquid, Vibrating tube method	1291.3 ± 1.7
283.15 K, 28987 kPa, Liquid, Vibrating tube method	1293.4 ± 1.7
283.15 K, 30001 kPa, Liquid, Vibrating tube method	1295.7 ± 1.7
283.15 K, 31009 kPa, Liquid, Vibrating tube method	1297.8 ± 1.7
283.15 K, 32017 kPa, Liquid, Vibrating tube method	1300.1 ± 1.7
283.15 K, 33020 kPa, Liquid, Vibrating tube method	1302.1 ± 1.7
283.15 K, 34022 kPa, Liquid, Vibrating tube method	1304.2 ± 1.7
292.54 K, 157.2 kPa, Gas, isochoric method	7.634 ± 0.1
292.56 K, 248.7 kPa, Gas, isochoric method	12.5 ± 0.11
292.56 K, 248.8 kPa, Gas, isochoric method	12.5 ± 0.11
292.76 K, 366.1 kPa, Gas, isochoric method	19.231 ± 0.12
292.83 K, 415.4 kPa, Gas, isochoric method	22.222 ± 0.12
293.14 K, 778 kPa, Liquid, Vibrating tube method	1179.9 ± 1.6
293.14 K, 1644 kPa, Liquid, Vibrating tube method	1184.2 ± 1.6
293.14 K, 2650 kPa, Liquid, Vibrating tube method	1188.7 ± 1.6
293.14 K, 4727 kPa, Liquid, Vibrating tube method	1197.6 ± 1.6
293.14 K, 5738 kPa, Liquid, Vibrating tube method	1201.8 ± 1.6
293.14 K, 6755 kPa, Liquid, Vibrating tube method	1205.9 ± 1.6
293.14 K, 7761 kPa, Liquid, Vibrating tube method	1209.7 ± 1.6
293.14 K, 8772 kPa, Liquid, Vibrating tube method	1213.4 ± 1.6
293.14 K, 10798 kPa, Liquid, Vibrating tube method	1220.7 ± 1.6
293.14 K, 12817 kPa, Liquid, Vibrating tube method	1227.5 ± 1.6
293.14 K, 13830 kPa, Liquid, Vibrating tube method	1230.8 ± 1.6
293.14 K, 15838 kPa, Liquid, Vibrating tube method	1236.9 ± 1.6
293.14 K, 16853 kPa, Liquid, Vibrating tube method	1240.1 ± 1.7
293.14 K, 17857 kPa, Liquid, Vibrating tube method	1243 ± 1.7
293.14 K, 20900 kPa, Liquid, Vibrating tube method	1251.6 ± 1.7
293.14 K, 21921 kPa, Liquid, Vibrating tube method	1254.3 ± 1.7
293.14 K, 22938 kPa, Liquid, Vibrating tube method	1257.2 ± 1.7
293.14 K, 23953 kPa, Liquid, Vibrating tube method	1259.7 ± 1.7
293.14 K, 24957 kPa, Liquid, Vibrating tube method	1262.3 ± 1.7
293.14 K, 31009 kPa, Liquid, Vibrating tube method	1277.1 ± 1.7
293.14 K, 32027 kPa, Liquid, Vibrating tube method	1279.3 ± 1.7
293.15 K, 69.4 kPa, Gas, isochoric method	3.311 ± 0.099
293.15 K, 3682 kPa, Liquid, Vibrating tube method	1193.3 ± 1.6
293.15 K, 9788 kPa, Liquid, Vibrating tube method	1217.1 ± 1.6
293.15 K, 11799 kPa, Liquid, Vibrating tube method	1223.9 ± 1.6
293.15 K, 14835 kPa, Liquid, Vibrating tube method	1233.8 ± 1.6
293.15 K, 18879 kPa, Liquid, Vibrating tube method	1246.2 ± 1.7
293.15 K, 19891 kPa, Liquid, Vibrating tube method	1248.9 ± 1.7
293.15 K, 25973 kPa, Liquid, Vibrating tube method	1264.9 ± 1.7
293.15 K, 26985 kPa, Liquid, Vibrating tube method	1267.4 ± 1.7
293.15 K, 27991 kPa, Liquid, Vibrating tube method	1270 ± 1.7
293.15 K, 28993 kPa, Liquid, Vibrating tube method	1272.4 ± 1.7
293.15 K, 30001 kPa, Liquid, Vibrating tube method	1274.8 ± 1.7
293.15 K, 33027 kPa, Liquid, Vibrating tube method	1281.7 ± 1.7
293.15 K, 34035 kPa, Liquid, Vibrating tube method	1284 ± 1.7
293.16 K, 69.4 kPa, Gas, isochoric method	3.311 ± 0.099
302.54 K, 258.5 kPa, Gas, isochoric method	12.5 ± 0.11
302.54 K, 258.6 kPa, Gas, isochoric method	12.5 ± 0.11
302.67 K, 71.8 kPa, Gas, isochoric method	3.311 ± 0.096
302.67 K, 162.7 kPa, Gas, isochoric method	7.634 ± 0.099
302.69 K, 162.7 kPa, Gas, isochoric method	7.634 ± 0.099
302.78 K, 381.8 kPa, Gas, isochoric method	19.231 ± 0.11
